{"source": "patent US20170217996A1", "about": "“Large-scale diastereoselective syntheses of cycloheptadienylsulfones and stereotetrads” (Purdue Research Foundation, priority 2014, published 2017)", "origin": "cited, not measured here", "key": {"[1]": {"tested_on": "actin", "conditions": "in vitro"}, "[2]": {"tested_on": "tubulin", "conditions": "in association with actin"}, "[3]": {"tested_on": "actin and tubulin"}, "[4]": {"tested_on": "HeLa S3 cells"}, "[5]": {"tested_on": "Lewis lung", "conditions": "mice"}, "[6]": {"tested_on": "P388 leukemia", "conditions": "mice"}, "[7]": {"tested_on": "Ehrlich carcinoma", "conditions": "mice"}, "[8]": {"tested_on": "Colon 26 carcinoma", "conditions": "mice"}, "[9]": {"tested_on": "B16 melanoma", "conditions": "mice"}}, "data": [{"compound": "COCC(C(=O)O[C@@H]1C/C=C/C=C/C(=O)O[C@H]([C@@H](C)[C@@H](O)[C@@H](C)CC[C@@H](OC(=O)C(C)N(C)C)[C@H](C)[C@H](OC(C)=O)[C@H](C)/C=C/N(C)C=O)C/C=C/[C@H](OC)C[C@H](C)C/C=C(\\C)[C@@H](OC)CC[C@@H](C)[C@@H](O)[C@@H]1C)N(C)C", "note": "(stereo partly drawn) [ApA, Aplyronine A]", "values": [{"measurement": "inhibition of actin polymerization", "setting": "[1]", "result": "inhibit actin polymerization in vitro to the same extent"}, {"measurement": "inhibition of tubulin polymerization", "setting": "[2]", "result": "inhibits tubulin polymerization"}, {"measurement": "complex with actin and tubulin", "setting": "[3]", "result": "1:1:1 heterotrimeric complex"}, {"measurement": "concentration that inhibits spindle formation and mitosis", "setting": "[4]", "result": 100, "unit": "pM"}, {"measurement": "increase of lifespan", "setting": "[5]", "result": 566, "unit": "%"}, {"measurement": "increase of lifespan", "setting": "[6]", "result": 545, "unit": "%"}, {"measurement": "increase of lifespan", "setting": "[7]", "result": 398, "unit": "%"}, {"measurement": "increase of lifespan", "setting": "[8]", "result": 255, "unit": "%"}, {"measurement": "increase of lifespan", "setting": "[9]", "result": 201, "unit": "%"}]}]}
